Measured values from patent US12568961B2, “Multi-layer true spherical chitosan encapsulation of absolute (essential) oils for use in pesticidal activity” (GroPro Corporation, priority 2023, dated 2026).
Marks after values point to notes of the source that are not given here.

Columns and labels:
[1] = test system: root-knot nematodes (Meloidogyne spp.); assay: nematocidal activity on hatched root-knot nematodes in Petri dish; details: 15 nematodes
Experimental: The tomato roots infected with root-knot nematodes were washed with running water and were then cut to a size of about 1 cm, after which 50 g of the cut roots were placed in a 500 ml round-bottom flask containing 200 ml of 0.5% sodium hypochloride (NaOCl), stopped with a rubber stopper, and shaken vigorously for 3 min to sterilize the roots and at the same time burst the egg bag. Thereafter, the solution was passed through a sieve in which 200 mesh was superimposed on 500 mesh, and washed with distilled water, so the eggs of the root-knot nematodes from which the NaOCl solution was removed were recovered.
Next, the eggs of the root-knot nematodes thus recovered were surface-sterilized with 0.5% NaOCl for 10 min, washed thoroughly with sterile distilled water, placed in a phosphate buffer (1%) containing sterilized normal saline, and hatched in an incubator at 25° C.
Thereafter, each mixed solution was diluted to 2000 ppm, 2 to 3 ml thereof was poured into a Petri dish, after which 15 hatched root-knot nematodes were placed in the Petri dish, and nematocidal activity was measured and the results thereof are shown in Table 1 below.
The number of root-knot nematodes used for the experiment on the number of killed root-knot nematodes was 15 at each dilution factor.

[2] = test system: Ae. aegypti, Culex species mosquitoes, Anopheles species mosquitoes; assay: mosquitos and midge adult activity; assay type: in vivo; details: used at 500 to 8,000 ppm
[3] = cited from earlier work
tomato seedlings = assay: phytotoxicity of geraniol, drenching treatment of potted tomato seedlings; assay type: in vivo; details: 1 week after treatment; for Extent of phytotoxicity (0-5) / Phytotoxicity symptom: 50 ml drench, tomato
Excerpt: Sterilized soil was uniformly mixed, 300 g thereof was then placed in each pot, and tomato seedlings not infected with root-knot nematodes were transplanted thereto.

[4] = test system: root-knot nematodes (Meloidogyne spp.); assay: nematocidal activity assessment of plant-derived materials in development; details: geraniol used at 500 to 4,000 ppm
multiple insects = assay: insecticidal activity on multiple insects (oxymatrine); assay type: in vivo; details: used at 500 to 6,000 ppm
Black Sigatoka = assay: field trials against black Sigatoka in bananas; details: applied as tank mixes with tea tree oil
Experimental: Tea tree oil was used in disclosed experiments and trials as an 54 mulsifiable concentrated formulation. For field trials in bananas, tea tree oil was applied similarly to conventional synthetic fungicides, with mineral oil, surfactants, and/or just water. The following fungicides, registered for use against black sigatoka in bananas, were tested for comparison: azoxystrobin (Bankit 25 SC), trifloxystrobin (Flint, Tega 50 WG), difenoconazole (Score, Sico 25 EC), mancozeb (43 SC Duwest 80 WP), flutriafol (Impact, 125 SC) and tridemorph (Calixin 86 OL).

C/C=C(\C)C(=O)O[C@H]1C[C@@H](OC(C)=O)[C@@]2(C(=O)OC)CO[C@H]3[C@@H](O)[C@@](C)([C@]45O[C@@]4(C)[C@H]4C[C@@H]5O[C@@H]5OC=C[C@@]54O)[C@H]4[C@]1(CO[C@]4(O)C(=O)OC)[C@@H]32 [Azadirachtin, azadirachtin]
number of killed root-knot nematodes ([1]; 2000 ppm, 1 day): 7
number of killed root-knot nematodes ([1]; 2000 ppm, 2 days): 8
number of killed root-knot nematodes ([1]; 2000 ppm, 3 days): 10

CC(C)=CCC/C(C)=C/CO [Geraniol, 3,7-dimethyl-2,6-octadien-1-ol]
mosquito and midge control [2]: superior mosquito and midge control was demonstrated without plant phytotoxicity or water toxicology
solubility in water [3]: insoluble in water
number of killed root-knot nematodes ([1]; 2000 ppm, 1 day): 15^a
number of killed root-knot nematodes ([1]; geraniol 2,000 ppm, 1 day): 15
concentrations causing phytotoxicity in tomato seedlings (tomato seedlings; drench): ≥ 4,000 ppm
concentrations with no effect on tomato seedlings (tomato seedlings; drench): ≤ 3,000 ppm
Extent of phytotoxicity (0-5) (tomato seedlings; geraniol 100 ppm): 0
Phytotoxicity symptom (tomato seedlings; geraniol 100 ppm): No
Extent of phytotoxicity (0-5) (tomato seedlings; geraniol 200 ppm): 0
Phytotoxicity symptom (tomato seedlings; geraniol 200 ppm): No
Extent of phytotoxicity (0-5) (tomato seedlings; geraniol 330 ppm): 0
Phytotoxicity symptom (tomato seedlings; geraniol 330 ppm): No
Extent of phytotoxicity (0-5) (tomato seedlings; geraniol 500 ppm): 0
Phytotoxicity symptom (tomato seedlings; geraniol 500 ppm): No
Extent of phytotoxicity (0-5) (tomato seedlings; geraniol 1,000 ppm): 0
Phytotoxicity symptom (tomato seedlings; geraniol 1,000 ppm): No
Extent of phytotoxicity (0-5) (tomato seedlings; geraniol 2,000 ppm): 0
Phytotoxicity symptom (tomato seedlings; geraniol 2,000 ppm): No
Extent of phytotoxicity (0-5) (tomato seedlings; geraniol 3,000 ppm): 0
Phytotoxicity symptom (tomato seedlings; geraniol 3,000 ppm): No
Extent of phytotoxicity (0-5) (tomato seedlings; geraniol 4,000 ppm): 5
Phytotoxicity symptom (tomato seedlings; geraniol 4,000 ppm): Withered
Extent of phytotoxicity (0-5) (tomato seedlings; geraniol 5,000 ppm): 5
Phytotoxicity symptom (tomato seedlings; geraniol 5,000 ppm): Withered
Extent of phytotoxicity (0-5) (tomato seedlings; geraniol 10,000 ppm): 5
Phytotoxicity symptom (tomato seedlings; geraniol 10,000 ppm): Withered
Extent of phytotoxicity (0-5) (tomato seedlings; geraniol 20,000 ppm): 5
Phytotoxicity symptom (tomato seedlings; geraniol 20,000 ppm): Withered
nematocidal control [4]: superior nematocidal control was demonstrated without plant phytotoxicity

O=C1CCC[C@@H]2[C@H]3CCC[N+]4([O-])CCC[C@@H](CN12)[C@@H]34 (some centres unmarked) [Oxymatrine, oxymatrine]
insecticidal control (multiple insects): superior insecticidal control was demonstrated without plant phytotoxicity

CC1COC(Cn2cncn2)(c2ccc(Oc3ccc(Cl)cc3)cc2Cl)O1 (centres unmarked) [difenoconazole]
control of Black Sigatoka (Black Sigatoka): effectively controlled

CON=C(C(=O)OC)c1ccccc1CON=C(C)c1cccc(C(F)(F)F)c1 [trifloxystrobin]
control of Black Sigatoka (Black Sigatoka): effectively controlled

pyrethrin
number of killed root-knot nematodes ([1]; 2000 ppm, 1 day): 5
number of killed root-knot nematodes ([1]; 2000 ppm, 2 days): 6
number of killed root-knot nematodes ([1]; 2000 ppm, 3 days): 11
